Measurements published in US12540141B2, “Spiropyrrolidine derived antiviral agents” (priority 2020, dated 2026).

Target: SARS-CoV-2 3CL-protease (Severe acute respiratory syndrome coronavirus 2, UniProt P0DTD1)
Experiment: SARS-CoV-2 3C-Like (3CL) Protease Fluorescence Assay (FRET)
Assay type: biochemical
Settings: SARS-CoV-2 3CL-protease 10 nM, 30 min preincubation at RT, substrate 40 μM

Structure (SMILES) | IC50 [µM]
CC(C)C[C@@H](C(=O)N1C[C@]2(C[C@H]1C#N)C(=O)Nc1ccccc12)N(C)C(=O)c1nnc(-c2ccc(F)cc2)o1 [Example 355] | < 0.1
CC(C)C[C@@H](C(=O)N1C[C@]2(C[C@H]1C#N)C(=O)Nc1ccccc12)N(C)C(=O)c1ccc2ncc(C(F)(F)F)cc2c1 [Example 237] | < 0.1
CC(C)C[C@@H](C(=O)N1C[C@]2(C[C@H]1C#N)C(=O)Nc1ccccc12)N(C)C(=O)c1cc(F)c2nc(C3CC3)c(C(=O)C(F)(F)F)n2c1 [Example 314] | 0.1 to 1
CC(C)C[C@@H](C(=O)N1C[C@]2(C[C@H]1C(O)S(=O)(=O)O)C(=O)Nc1ccccc12)N(C)C(=O)c1cc2c(F)cc(F)c(F)c2[nH]1 (some centres unmarked) [Example 154] | < 0.1
CC(C)(F)C[C@H](NC(=O)c1ccc(F)cc1F)C(=O)N1C[C@]2(C[C@H]1C#N)C(=O)Nc1ccc(Cl)cc12 [Example 449] | 0.1 to 1
[2H]C([2H])([2H])N(C(=O)c1cn(C2CCC2)nn1)[C@@H](CC(C)(C)C)C(=O)N1C[C@]2(C[C@H]1C#N)C(=O)Nc1ccccc12 [Example 379] | < 0.1
CC(C)C[C@@H](C(=O)N1C[C@]2(C[C@H]1C#N)C(=O)Nc1ccccc12)N(C)C(=O)c1cc(F)c2nn(C3CC3)cc2c1 [Example 311] | 0.1 to 1
[2H]C([2H])([2H])N(C(=O)c1ccc2ncc(C(F)(F)F)cc2c1)[C@@H](CC(C)(C)C)C(=O)N1C[C@]2(C[C@H]1C#N)C(=O)Nc1ccccc12 [Example 381] | < 0.1
CC(C)C[C@@H](C(=O)N1C[C@]2(C[C@H]1C#N)C(=O)Nc1ccccc12)N(C(=O)C(F)(F)F)C(C)C [Example 432] | > 1
CC(C)C[C@@H](C(=O)N1C[C@]2(C[C@H]1C#N)C(=O)Nc1ccccc12)N(C)C(=O)c1ccc2ncccc2c1 [Example 210] | < 0.1
CC(C)C[C@@H](C(=O)N1C[C@]2(C[C@H]1C#N)C(=O)Nc1ccccc12)N(C)C(=O)c1cnc2cccnc2c1 [Example 302] | 0.1 to 1
N#C[C@@H]1C[C@@]2(CN1C(=O)[C@H](CC1CC1)NC(=O)c1cccc(OC(F)(F)F)c1)C(=O)Nc1ccc(Cl)cc12 [Example 520] | < 0.1
CC(C)C[C@@H](C(=O)N1C[C@]2(C[C@H]1C#N)C(=O)Nc1ccccc12)N(C)C(=O)c1cc(Cl)cc(C#N)c1 [Example 187] | < 0.1
CN(C(=O)c1cc2cccnc2[nH]1)[C@@H](CC1CC1)C(=O)N1C[C@]2(C[C@H]1C#N)C(=O)Nc1ccc(Cl)cc12 [Example 459] | < 0.1
CC(C)C[C@@H](C(=O)N1C[C@]2(C[C@H]1C#N)C(=O)Nc1ccccc12)N(C)C(=O)c1cnc2ccccc2c1 [Example 213] | < 0.1
CN(C(=O)c1cc2cccnc2[nH]1)[C@@H](CC(C)(C)F)C(=O)N1C[C@]2(C[C@H]1C#N)C(=O)Nc1ccccc12 [Example 466] | < 0.1
[2H]C([2H])([2H])N(C(=O)c1cc(OC(F)F)c2ncccc2c1)[C@@H](CC(C)(C)C)C(=O)N1C[C@]2(C[C@H]1C#N)C(=O)Nc1ccccc12 [Example 383] | < 0.1
CC(C)(C)C[C@H](NC(=O)c1cc2c(Cl)cccc2[nH]1)C(=O)N1C[C@]2(C[C@H]1C#N)C(=O)Nc1ccc(Cl)cc12 [Example 450] | < 0.1
CC(C)C[C@@H](C(=O)N1C[C@]2(C[C@H]1C#N)C(=O)Nc1ccccc12)N(C)C(=O)c1cccc(-c2ccccc2C#N)c1 [Example 278] | < 0.1
CC(C)C[C@@H](C(=O)N1C[C@]2(C[C@H]1C#N)C(=O)Nc1ccccc12)N(C)C(=O)c1cccc(OC(F)F)c1 [Example 188] | < 0.1
CN(C(=O)C1(c2cccnc2)CC1)[C@@H](CC(C)(C)F)C(=O)N1C[C@]2(C[C@H]1C#N)C(=O)Nc1ccc(Cl)cc12 [Example 479] | < 0.1

Structure (SMILES) | IC50 [µM]
CN(C(=O)CCN1CCC1)[C@@H](CC(C)(C)F)C(=O)N1C[C@]2(C[C@H]1C#N)C(=O)Nc1ccccc12 [Example 540] | < 0.1
CC(C)C[C@@H](C(=O)N1C[C@]2(C[C@H]1C#N)C(=O)Nc1ccc(C(=O)N3CCOCC3)cc12)N(C)C(=O)c1cc2c(F)cc(F)cc2[nH]1 [Example 502, N—((S)-1-((3R,5′S)-5′-cyano-5-(morpholine-4-carbonyl)-2-oxospiro[indoline-3,3′-pyrrolidin]-1′-yl)-4-methyl-1-oxopentan-2-yl)-4,6-difluoro-N-methyl-1H-indole-2-carboxamide] | < 0.1
CC(C)C[C@H](NC(=O)c1cc2c(F)cccc2[nH]1)C(=O)N1C[C@]2(C[C@H]1C#N)C(=O)Nc1cccc(Cl)c12 [Example 528] | 0.1 to 1
CN(C(=O)c1cnn(-c2ccc(F)cc2)c1)[C@@H](CC1CC1)C(=O)N1C[C@]2(C[C@H]1C#N)C(=O)Nc1ccccc12 [Example 405] | < 0.1
CC(C)C[C@@H](C(=O)N1C[C@]2(C[C@H]1C#N)C(=O)Nc1ccccc12)N(C)C(=O)c1ccc(OC2CC2)c(-c2cccnc2)c1 [Example 343] | < 0.1
CN(C(=O)CCN1CCCCC1)[C@@H](CC(C)(C)F)C(=O)N1C[C@]2(C[C@H]1C#N)C(=O)Nc1ccccc12 [Example 542] | < 0.1
CC(C)C[C@@H](C(=O)N1C[C@]2(C[C@H]1C#N)C(=O)Nc1ccccc12)N(C)C(=O)c1cc2cccnc2[nH]1 [Example 464] | < 0.1
CC(C)(C)C[C@H](NC(=O)c1cnn(C(C)(C)C)c1)C(=O)N1C[C@]2(C[C@H]1C#N)C(=O)Nc1ccccc12 [Example 133] | < 0.1
CC(C)C[C@@H](C(=O)N1C[C@]2(C[C@H]1C#N)C(=O)Nc1ccccc12)N(C)C(=O)c1cc(OC2CC2)c2nc(C3CC3)sc2c1 [Example 317] | < 0.1
CC(C)C[C@@H](C(=O)N1C[C@]2(C[C@H]1C#N)C(=O)Nc1ccccc12)N(C)C(=O)c1ccn(C)n1 [Example 204] | 0.1 to 1
CC(C)C[C@@H](C(=O)N1C[C@]2(C[C@H]1C#N)C(=O)Nc1ccccc12)N(C)C(=O)C#Cc1ccccc1 [Example 248] | 0.1 to 1
CCC[C@@H](C(=O)N1C[C@]2(C[C@H]1C#N)C(=O)Nc1ccccc12)N(C)C(=O)c1cc2c(F)cc(F)cc2[nH]1 [Example 386] | < 0.1
CC(C)C[C@@H](C(=O)N1C[C@]2(C[C@H]1C#N)C(=O)Nc1ccccc12)N(C)C(=O)c1cc2nccnc2[nH]1 [Example 490] | < 0.1
CC(C)C[C@@H](C(=O)N1C[C@]2(C[C@H]1C#N)C(=O)Nc1ccccc12)N(C)C(=O)c1nc2ccccc2[nH]1 [Example 205] | < 0.1
CC(C)C[C@@H](O)C(=O)N(C)[C@@H](CC1CC1)C(=O)N1C[C@]2(C[C@H]1C#N)C(=O)Nc1ccccc12 [Example 424] | < 0.1
[2H]C([2H])([2H])N(C(=O)c1cn(C2CCC2)nn1)[C@@H](Cc1ccc(F)cc1)C(=O)N1C[C@]2(C[C@H]1C#N)C(=O)Nc1ccccc12 [Example 390] | < 0.1
CC(C)C[C@@H](C(=O)N1C[C@]2(C[C@H]1C#N)C(=O)Nc1ccccc12)N(C)C(=O)c1ccc2cnn(C)c2c1 [Example 224] | < 0.1
CC(C)(C)C[C@H](NC(=O)NC1CCCCC1)C(=O)N1C[C@]2(C[C@H]1C#N)C(=O)Nc1ccccc12 [Example 440] | < 0.1
CC(C)C[C@@H](C(=O)N1C[C@]2(C[C@H]1C#N)C(=O)Nc1ccccc12)N(C)C(=O)c1ccc(F)c(F)c1 [Example 178] | < 0.1
CC(C)C[C@@H](C(=O)N1C[C@]2(C[C@H]1C#N)C(=O)Nc1ccccc12)N(C)C(=O)CC1CC1 [Example 364] | < 0.1
